Columns and labels:
Type in all cases: cell-based
JAG1 = assay: RNA-seq of JAG1 expression in compound-treated primary human hepatocytes; details: for JAG1 Fold Change (Log2): primary human hepatocytes; for Significant modulation of JAG1 (in words): summary of Table 6
Procedure: (§1) Human hepatocytes were obtained from two donors from Massachusetts General Hospital, namely MGH54 and MGH63, and one donor from Lonza, namely HUM4111B. Cryopreserved hepatocytes were cultured in plating media for 16 hours, transferred to maintenance media for 4 hours. Cultured on serum-free media for 2 hours, then a compound was added. The hepatocytes were maintained on the serum-free media for 16 hours prior to gene expression analysis. Primary human hepatocytes were stored in the vapor phase of a liquid nitrogen freezer (about -130° C.). Human hepatocytes cultured as described above were plated in 24-well format, adding 375,000 cells per well in a volume of 500 ul plating medium. Four hours before treatment, cells were washed with PBS and the medium was changed to either: fresh maintenance medium (complete) or modified maintenance medium. Compound stocks were prepared at 1000× final concentration and added in a 2-step dilution to the medium to reduce risk of a compound precipitating out of solution when added to the cells, and to ensure reasonable pipetting volumes. […] The plate was mixed by carefully swirling and after all wells were treated and returned to the incubator overnight. If desired, separate plates/wells were treated with vehicle-only controls and/or positive controls. If using multi-well plates, controls were included on each plate. After about 18 hours, cells were harvested for further analysis, e.g., ChIP-seq, RNA-seq, ATAC-seq, etc. This protocol is a modified version of the following protocols: MagMAX mirVana Total RNA Isolation Kit User Guide (Applied Biosystems #MAN0011131 Rev B.0), NEBNext Poly(A) mRNA Magnetic Isolation Module ([…]), and NEBNext Ultra Directional RNA Library Prep Kit for Illumina ([…]) (New England Biosystems #E74901). […] Two hundred μl of Lysis Binding Mix was used per well of the multiwell plate containing adherent cells (usually a 24-well plate). For mRNA isolation and library prep, the NEBNext Poly(A) mRNA Magnetic Isolation Module and Directional Prep kit was used. RNA isolated from cells above was quantified, and prepared in […] of each sample in 50 μl of nuclease-free water. This protocol may be run in microfuge tubes or in a 96-well plate. […] Genomic alignments were converted to transcriptome alignments based on reference transcript annotations from the Human GENCODE Gene Set release 24 (Harrow et al., Genome Res. […] Standard QC were applied (read integrity, mapping statistics, library complexity, fragment bias) to remove unsatisfactory samples. Differential gene expression was computed using the negative binomial model implemented by DESeq2 version 1.16.1 (Love et al., Genome Biol. (2014) 15(12):550). […] RNA-seq signals were also normalized by read depth and visualized using the UCSC browser. To identify small molecules that modulate target gene expression, primary human hepatocytes were prepared as a monoculture, and at least one small molecule compound was applied to the cells. RNA-seq was performed to determine the effects of the compounds on the expression of the target genes in hepatocytes. Fold change was calculated by dividing the level of expression in the cell system that had been perturbed by the level of expression in an unperturbed system.

LECT2 = assay: RNA-seq of LECT2 expression in compound-treated primary human hepatocytes
Procedure: (§2) Human hepatocytes were obtained from two donors from Massachusetts General Hospital, namely MGH54 and MGH63, and one donor from Lonza, namely HUM4111B. Cryopreserved hepatocytes were cultured in plating media for 16 hours, transferred to maintenance media for 4 hours. Cultured on serum-free media for 2 hours, then a compound was added. The hepatocytes were maintained on the serum-free media for 16 hours prior to gene expression analysis. Primary human hepatocytes were stored in the vapor phase of a liquid nitrogen freezer (about −130° C.).
(§3) Human hepatocytes cultured as described above were plated in 24-well format, adding 375,000 cells per well in a volume of 500 ul plating medium. Four hours before treatment, cells were washed with PBS and the medium was changed to either: fresh maintenance medium (complete) or modified maintenance medium.
(§4) Compound stocks were prepared at 1000× final concentration and added in a 2-step dilution to the medium to reduce risk of a compound precipitating out of solution when added to the cells, and to ensure reasonable pipetting volumes. One at a time, each compound was first diluted 10-fold in warm (about 37° C.) modified maintenance medium (initial dilution=ID), mixed by vortexing, and the ID was diluted 100-fold into the cell culture (e.g. 5.1 ul into 1 well of a 24-well plate containing 0.5 mL medium). The plate was mixed by carefully swirling and after all wells were treated and returned to the incubator overnight. If desired, separate plates/wells were treated with vehicle-only controls and/or positive controls. If using multi-well plates, controls were included on each plate. After about 18 hours, cells were harvested for further analysis, e.g., ChIP-seq, RNA-seq, ATAC-seq, etc.
(§5) This protocol is a modified version of the following protocols: MagMAX mirVana Total RNA Isolation Kit User Guide (Applied Biosystems #MAN0011131 Rev B.0), NEBNext Poly(A) mRNA Magnetic Isolation Module (E7490), and NEBNext Ultra Directional RNA Library Prep Kit for Illumina (E7420) (New England Biosystems #E74901).
(§6) The MagMAX mirVana kit instructions (the section titled “Isolate RNA from cells” on pages 14-17) were used for isolation of total RNA from cells in culture. Two hundred μl of Lysis Binding Mix was used per well of the multiwell plate containing adherent cells (usually a 24-well plate).
(§7) For mRNA isolation and library prep, the NEBNext Poly(A) mRNA Magnetic Isolation Module and Directional Prep kit was used. RNA isolated from cells above was quantified, and prepared in […] of each sample in 50 μl of nuclease-free water. This protocol may be run in microfuge tubes or in a 96-well plate.
Standard QC were applied (read integrity, mapping statistics, library complexity, fragment bias) to remove unsatisfactory samples. […] Log 2 fold change and significance values were computed using PME count data (with replicates explicitly modeled versus pan-experiment controls), median ratio normalized, using maximum likelihood estimation rather than maximum a posteriori, and disabling the use of Cook's distance cutoff when determining acceptable adjusted p-values. […] RNA-seq signals were also normalized by read depth and visualized using the UCSC browser.
To identify small molecules that modulate target gene expression, primary human hepatocytes were prepared as a monoculture, and at least one small molecule compound was applied to the cells.
RNA-seq was performed to determine the effects of the compounds on the expression of the target genes in hepatocytes. Fold change was calculated by dividing the level of expression in the cell system that had been perturbed by the level of expression in an unperturbed system. Changes in expression having a p-value ≤0.05 were considered significant.
Significance was defined as an FPKM ≥1, a log 2(fold change) ≥0.5, and a q-value of ≤0.05 for all targets except for CPOX.

NOTCH2 = assay: RNA-seq of NOTCH2 expression in compound-treated primary human hepatocytes; details: for NOTCH2 Fold Change (Log2): primary human hepatocytes; for Significant modulation of NOTCH2 (in words): summary of Table 6
Procedure: as §1

FN1 = assay: RNA-seq of FN1 expression in compound-treated primary human hepatocytes; details: perturbed vs unperturbed, significance FPKM ≥1, log 2(fold change) ≥0.5, q-value ≤0.05
Procedure: as §2, §3, §4, §5, §6, §7
All pass filter reads from each sample were mapped against the human genome (assembly GRCh38/GCA_000001405.15 “no alt” analysis set merged with hs38d1/GCA_000786075.2) using two pass mapping via STAR version 2.5.3a (alignment parameters alignIntronMin=20; alignIntronMax=1000000; outFilterMismatchNmax=999; outFilterMismatchNoverLmax=0.05; outFilterType=BySJout; outFilterMultimapNmax=20; alignSJoverhangMin=8; alignSJDBoverhangMin=1; alignMatesGapMax=1000000) (Dobin et al., Bioinformatics (2012) 29(1):15-21). Genomic alignments were converted to transcriptome alignments based on reference transcript annotations from the Human GENCODE Gene Set release 24 (Harrow et al., Genome Res. (2012) 22(9): 1760-1774). Using unique and multimapped transcriptomic alignments, gene-level abundance estimates were computed using RSEM version 1.3.0 (Li and Dewey, BMC Bioinformatics (2011) 12:323) in a strand-aware manner, and including confidence interval sampling calculations, to arrive at posterior mean estimates (PME) of abundances (counts and normalized FPKM—fragments per kilobase of exon per million mapped fragments) from the underlying Bayesian model. Standard QC were applied (read integrity, mapping statistics, library complexity, fragment bias) to remove unsatisfactory samples.

ANGPTL3 = assay: RNA-seq of ANGPTL3 expression in compound-treated primary human hepatocytes; details: additional compounds (Table 13), linear fold change
In short: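 Cryopreserved primary human hepatocytes from three donors, plated at 375,000 cells/well, switched to complete or modified maintenance medium, then dosed with compound (stocks at 1000× final) for about 18 h. Poly(A) mRNA was sequenced directionally, mapped to GRCh38 with STAR, and gene-level abundance (counts, FPKM) estimated with RSEM against GENCODE 24.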

UGT1A1 = assay: RNA-seq of UGT1A1 expression in compound-treated primary human hepatocytes
In short: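 Cryopreserved primary human hepatocytes from three donors were plated in 24-well format, then treated with compound diluted from 1000× stocks in serum-free maintenance medium for about 16–18 h. Poly(A) RNA-seq log2 fold change was computed against vehicle/pan-experiment controls. Significance required FPKM ≥1, log2FC ≥0.5 and q ≤0.05.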

| Molecule | LECT2 Fold Change (Log2) (LECT2) | FN1 Fold Change (Log2) (FN1) | ANGPTL3-LINEAR FOLD CHANGE (ANGPTL3) | also measured |
| --- | --- | --- | --- | --- |
| 740 Y-P | −0.62 |  |  | JAG1 Fold Change (Log2) (JAG1): 0 Log2; NOTCH2 Fold Change (Log2) (NOTCH2): 0.66 Log2; Significant modulation of NOTCH2 (in words) (NOTCH2): significantly modulate only NOTCH2 |
| CN1CCN(S(=O)(=O)c2ccc(-c3cnc(N)c(C(=O)Nc4cccnc4)n3)cc2)CC1 [AZD2858] |  | −1.23 | 0.3186 |  |
| CN(C)C/C=C/C(=O)Nc1cc2c(Nc3ccc(F)c(Cl)c3)ncnc2cc1O[C@H]1CCOC1 [Afatinib] | −0.75 | −0.98 | 0.3078 |  |
| CCOC(=O)C1=C(COCCN)NC(C)=C(C(=O)OC)C1c1ccccc1Cl (centres unmarked) [Amlodipine Besylate] | −0.55 | −1.22 | 0.3035 |  |
| CCN1CCN(c2ccc(Nc3cc(N(C)C(=O)Nc4c(Cl)c(OC)cc(OC)c4Cl)ncn3)cc2)CC1 [BGJ398] |  | −1.36 | 0.3368 |  |
| COc1cc2c(Oc3ccc4[nH]c(C)cc4c3F)ncnc2cc1OCCCN1CCCC1 [Cediranib] |  | −0.79 | 0.4323 |  |
| CCN(CC)CCN(Cc1ccc(-c2ccc(C(F)(F)F)cc2)cc1)C(=O)Cn1c(SCc2ccc(F)cc2)nc(=O)c2c1CCC2 [Darapladib] | −0.55 |  | 0.4569 |  |
| c1ccc2c(-c3cnn4cc(-c5ccc(N6CCNCC6)cc5)cnc34)ccnc2c1 [LDN193189] |  | −0.87 | 0.4204 | JAG1 Fold Change (Log2) (JAG1): 2.07 Log2; Significant modulation of JAG1 (in words) (JAG1): significantly modulate only JAG1; NOTCH2 Fold Change (Log2) (NOTCH2): 0 Log2 |
| Cc1[nH]c(/C=C2\C(=O)Nc3ccc(S(=O)(=O)Cc4c(Cl)cccc4Cl)cc32)c(C)c1C(=O)N1CCC[C@@H]1CN1CCCC1 [PHA-665752] |  | −1.14 |  |  |
| CO[C@H]1/C=C/O[C@@]2(C)Oc3c(C)c(O)c4c(O)c(c(/C=N/N5CCN(C)CC5)c(O)c4c3C2=O)NC(=O)/C(C)=C\C=C\[C@H](C)[C@H](O)[C@@H](C)[C@@H](O)[C@@H](C)[C@H](OC(C)=O)[C@@H]1C [Rifampicin] | −0.88 |  |  |  |
| CC(C)c1nc(CN(C)C(=O)N[C@H](C(=O)N[C@@H](Cc2ccccc2)C[C@H](O)[C@H](Cc2ccccc2)NC(=O)OCc2cncs2)C(C)C)cs1 [Ritonavir] | −1.00 |  |  | UGT1A1 Fold Change (Log2) (UGT1A1): 0.63 Log2 |
| CNC1CCC(N(Cc2cccc(-c3ccncc3)c2)C(=O)c2sc3ccccc3c2Cl)CC1 (centres unmarked) [Smoothened Agonist] |  | −1.95 | 0.3035 |  |
| CN1CCN(CCCN2c3ccccc3Sc3ccc(C(F)(F)F)cc32)CC1 [TFP] | −0.91 |  | 0.2832 |  |
| COc1cc2nccc(Oc3ccc(NC(=O)Nc4cc(C)on4)c(Cl)c3)c2cc1OC [Tivozanib] |  | −0.8 | 0.4204 |  |
| CCOC(=O)N1c2ccc(C(F)(F)F)cc2[C@@H](N(Cc2cc(C(F)(F)F)cc(C(F)(F)F)c2)C(=O)OC)C[C@H]1CC [Torcetrapib] | −0.86 |  |  | JAG1 Fold Change (Log2) (JAG1): 0.68 Log2; Significant modulation of JAG1 (in words) (JAG1): significantly modulate both JAG1 and NOTCH2; NOTCH2 Fold Change (Log2) (NOTCH2): 0.76 Log2; Significant modulation of NOTCH2 (in words) (NOTCH2): significantly modulate both JAG1 and NOTCH2 |
| COc1nc(C)cnc1NS(=O)(=O)c1cccnc1-c1ccc(-c2nnco2)cc1 [Zibotentan] | −0.83 |  |  | JAG1 Fold Change (Log2) (JAG1): 0 Log2; NOTCH2 Fold Change (Log2) (NOTCH2): 0.94 Log2; Significant modulation of NOTCH2 (in words) (NOTCH2): significantly modulate only NOTCH2 |
| C[C@]12CC[C@@H]3c4ccc(O)cc4CC[C@H]3[C@@H]1CC[C@@H]2O [b-Estradiol] | −0.90 |  |  |  |
| COc1nc(N)nc2c1ncn2[C@@H]1O[C@H](COP(=O)(N[C@@H](C)C(=O)OCC(C)(C)C)Oc2cccc3ccccc23)[C@@H](O)[C@@]1(C)O (some centres unmarked) [bms-986094 (inx-189)] |  | −1.00 |  |  |
